Laboratory results published in US11464770B2, “Anticancer pharmaceutical composition” (NATIONAL CANCER CENTER, priority 2016, dated 2022).
Where two headings read alike, the source gives them in different places.

System: breast cancer cell lines (e.g. MDA-MB-231, SK-BR-3, MDA-MB-468, HCC1954)
Assay: Cell based assay, cell viability (CellTiter-Glo), breast cancer cell lines
Settings: 72 hours, CellTiter-Glo
How it was run: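 Trypsin-EDTA-detached lines seeded; 24 h later compound added (final 0–2 μM); 72 h exposure; ATP luminescence viability readout.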

[1] = Breast cancer cell line MDA-MB-231-L/DOX, read-out: IC50, MDA-MB-231-L/DOX
[2] = Homo sapiens, Breast cancer cell line BT-20, read-out: IC50, BT-20
[3] = Homo sapiens, Breast cancer cell line HCC1395, read-out: IC50, HCC1395
[4] = Homo sapiens, Breast cancer cell line HCC1954, read-out: IC50, HCC1954
[5] = Homo sapiens, Breast cancer cell line JIMT-1, read-out: IC50, JIMT-1
[6] = Homo sapiens, Breast cancer cell line MCF7, read-out: IC50, MCF7
[7] = Homo sapiens, Breast cancer cell line MDA-MB-231, read-out: IC50, MDA-MB-231
[8] = Homo sapiens, Breast cancer cell line MDA-MB-468, read-out: IC50, MDA-MB-468
[9] = Homo sapiens, Breast cancer cell line SK-BR-3, read-out: IC50, SK-BR-3

| SMILES | IC50 [1] | IC50 [2] | IC50 [3] | IC50 [4] | IC50 [5] | IC50 [6] | IC50 [7] | IC50 [8] | IC50 [9] |
| --- | --- | --- | --- | --- | --- | --- | --- | --- | --- |
| CC(=O)c1c([S+]([O-])Cc2ccc(F)cc2F)[nH]c2c(Br)ccc(Cl)c2c1=O (stereo not drawn) [Compound 29, 3-acetyl-8-bromo-5-chloro-2-((2,4-difluorobenzyl)sulfinyl)quinolin-4(1H)-one] | > 2000 nM | > 2000 nM | > 10000 nM | > 2000 nM | > 10000 nM | > 2000 nM | > 2000 nM | > 2000 nM | 850 nM |
| CC(=O)c1c([S+]([O-])Cc2ccc(F)c(Cl)c2)[nH]c2c(Br)ccc(Cl)c2c1=O (stereo not drawn) [Compound 31, 3-acetyl-8-bromo-5-chloro-2-((3-chloro-4-fluorobenzyl)sulfinyl)quinolin-4(1H)-one] | > 2000 nM | > 2000 nM | > 10000 nM | > 2000 nM | > 10000 nM | > 2000 nM | 1330 nM | > 2000 nM | 950 nM |
| CC(=O)c1c([S+]([O-])Cc2ccc([N+](=O)[O-])cc2)[nH]c2c(Br)ccc(Cl)c2c1=O (stereo not drawn) [Compound 33, 3-acetyl-8-bromo-5-chloro-2-((4-nitrobenzyl)sulfinyl)quinolin-4(1H)-one] | > 2000 nM | > 2000 nM | > 10000 nM | > 2000 nM | > 10000 nM | > 2000 nM | > 2000 nM | > 2000 nM | 1000 nM |
| CC(=O)c1c(S(=O)(=O)Cc2ccccc2)[nH]c2c(Br)ccc(Cl)c2c1=O [Compound 34, 3-acetyl-2-(benzylsulfonyl)-8-bromo-5-chloroquinolin-4(1H)-one] | > 2000 nM | > 2000 nM | > 10000 nM | > 2000 nM | > 10000 nM | > 2000 nM | > 2000 nM | > 2000 nM | 1270 nM |
| CC(=O)c1c([S+]([O-])Cc2cc(Cl)ccc2Cl)[nH]c2c(Br)ccc(Cl)c2c1=O (stereo not drawn) [Compound 44, 3-acetyl-8-bromo-5-chloro-2-((2,5-dichlorobenzyl)sulfinyl)quinolin-4(1H)-one] | > 2000 nM | > 2000 nM | > 10000 nM | > 2000 nM | > 10000 nM | > 2000 nM | > 2000 nM | > 2000 nM | 1060 nM |

Next, values leading:

| IC50 [1] | IC50 [2] | IC50 [3] | IC50 [4] | IC50 [5] | IC50 [6] | IC50 [7] | IC50 [8] | IC50 [9] | SMILES |
| --- | --- | --- | --- | --- | --- | --- | --- | --- | --- |
| > 2000 nM | > 2000 nM | > 10000 nM | > 2000 nM | > 10000 nM | > 2000 nM | > 2000 nM | > 2000 nM | 1160 nM | CC(=O)c1c([S+]([O-])Cc2cc(F)cc(F)c2)[nH]c2c(Br)ccc(Cl)c2c1=O (stereo not drawn) [Compound 46, 3-acetyl-8-bromo-5-chloro-2-((3,5-difluorobenzyl)sulfinyl)quinolin-4(1H)-one] |
| > 2000 nM | > 2000 nM | > 10000 nM | > 2000 nM | > 10000 nM | > 2000 nM | > 2000 nM | > 2000 nM | 1010 nM | CC(=O)c1c([S+]([O-])Cc2cccc(F)c2)[nH]c2c(Br)ccc(Cl)c2c1=O (stereo not drawn) [Compound 50, 3-acetyl-8-bromo-5-chloro-2-((3-fluorobenzyl)sulfinyl)quinolin-4(1H)-one] |
| > 2000 nM | > 2000 nM | > 10000 nM | > 2000 nM | > 10000 nM | > 2000 nM | 1550 nM | > 2000 nM | 540 nM | CC(=O)c1c([S+]([O-])Cc2cc(C)on2)[nH]c2c(Br)ccc(Cl)c2c1=O (stereo not drawn) [Compound 51, 3-acetyl-8-bromo-5-chloro-2-(((5-methylisoxazol-3-yl)methyl)sulfinyl)quinolin-4(1H)-one] |
| > 2000 nM | > 2000 nM | > 10000 nM | > 2000 nM | > 10000 nM | > 2000 nM | > 2000 nM | > 2000 nM | 1100 nM | COc1cccc(C[S+]([O-])c2[nH]c3c(Br)ccc(Cl)c3c(=O)c2C(C)=O)c1 (stereo not drawn) [Compound 55, 3-acetyl-8-bromo-5-chloro-2-((3-methoxybenzyl)sulfinyl)quinolin-4(1H)-one] |
| > 2000 nM | > 2000 nM | > 10000 nM | > 2000 nM | > 10000 nM | > 2000 nM | > 2000 nM | > 2000 nM | 1340 nM | CC(=O)c1c([S+]([O-])Cc2ccc([N+](=O)[O-])cc2)[nH]c2c(Cl)ccc(Cl)c2c1=O (stereo not drawn) [Compound 57, 3-acetyl-5,8-dichloro-2-((4-nitrobenzyl)sulfinyl)quinolin-4(1H)-one] |
| > 2000 nM | > 2000 nM | > 10000 nM | > 2000 nM | > 10000 nM | > 2000 nM | > 2000 nM | > 2000 nM | 1080 nM | COc1cc(C[S+]([O-])c2[nH]c3c(Br)ccc(Cl)c3c(=O)c2C(C)=O)cc(OC)c1 (stereo not drawn) [Compound 59, 3-acetyl-8-bromo-5-chloro-2-((3,5-dimethoxybenzyl)sulfinyl)quinolin-4(1H)-one] |
